Counter-ions that a name gives are not always drawn.
Molecular target: JNK1 (Homo sapiens (Human), UniProt P45983)
Assay: In Vitro JNK1 Assay (TR-FRET, phosphorylation of GST-c-Jun)
Type: biochemical
Conditions: 0.2 nM active JNK1 kinase, 26.7 nM GST-c-Jun, 2 μM ATP, 30 min at room temperature
Experimental: Phosphorylation of GST-c-Jun protein (amino acid residues 1-79) was measured as JNK1 activity. […] The reaction buffer contained 50 mM HEPES, pH […], 1 mM DTT, 0.1 mM Na3VO4 and 0.2 mg/mL BSA. After 30 min. incubation at room temperature, the reaction was terminated by adding buffer containing 8 mM EDTA and a polyclonal anti-phospho-c-Jun antibody (Cell Signaling #9261L), followed by an additional incubation of 30 min. at room temperature. […] Time-resolved Fluorescence Resonance Energy Transfer (TR-FRET) signals were measured 1 hr. later on the EnVision reader (Perkin Elmer). Compound potency was assessed at 10 serially diluted concentrations. Percentage of inhibition at each concentration was determined to generate an IC50 value for each compound.

Sequence of JNK1 (P45983 whole entry): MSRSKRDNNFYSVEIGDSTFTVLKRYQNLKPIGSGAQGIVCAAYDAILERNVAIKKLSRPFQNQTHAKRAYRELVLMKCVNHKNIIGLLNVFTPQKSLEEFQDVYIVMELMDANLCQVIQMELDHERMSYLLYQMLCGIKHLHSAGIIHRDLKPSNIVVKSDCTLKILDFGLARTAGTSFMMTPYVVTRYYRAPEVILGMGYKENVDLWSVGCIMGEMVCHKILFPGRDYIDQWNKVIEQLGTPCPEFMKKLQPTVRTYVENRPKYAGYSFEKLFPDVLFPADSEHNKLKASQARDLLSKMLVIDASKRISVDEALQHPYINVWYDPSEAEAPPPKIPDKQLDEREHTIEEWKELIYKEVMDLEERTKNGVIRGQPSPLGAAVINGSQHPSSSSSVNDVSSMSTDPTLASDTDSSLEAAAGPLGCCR

Row | SMILES | IC50
1 | CC(=O)N1CCC(NC(=O)NCc2cn(-c3ccccc3)c3cc(Cl)ccc3c2=O)CC1 [Example I-198, 1-(1-Acetyl-piperidin-4-yl)-3-(7-chloro-4-oxo-1-phenyl-1,4-dihydro-quinolin-3-ylmethyl)-urea] | 2.2 µM
2 | COC(=O)c1c(CNC(=O)c2ccc(N(C)C)cc2)c(=O)c2ccc(OC)cc2n1-c1ccccc1 [Example I-167, 3-[(4-Dimethylamino-benzoylamino)-methyl]-7-methoxy-4-oxo-1-phenyl-1,4-dihydro-quinoline-2-carboxylic acid methyl ester] | 0.18 µM
3 | O=C(NCc1cn(-c2ccccc2)c2cc(Cl)ccc2c1=O)c1ccc(Cl)nc1 [Example I-61, 6-Chloro-N-(7-chloro-4-oxo-1-phenyl-1,4-dihydro-quinolin-3-ylmethyl)-nicotinamide] | 0.43 µM
4 | O=C(NCc1cn(-c2ccccc2)c2cc(Cl)ccc2c1=O)NC1CCN(S(=O)(=O)c2ccccc2)CC1 [Example I-196, 1-(7-Chloro-4-oxo-1-phenyl-1,4-dihydro-quinolin-3-ylmethyl)-3-(1-phenylsulfonyl-piperidin-4-yl)-urea] | 1.1 µM
5 | O=C(NCc1cn(-c2ccccc2)c2cc(Cl)ccc2c1=O)c1cccc(F)c1F [Example I-59, N-(7-Chloro-4-oxo-1-phenyl-1,4-dihydro-quinolin-3-ylmethyl)-2,3-difluoro-benzamide] | 1.7 µM
6 | NC(=O)c1ccc(C(=O)NCc2cn(-c3ccccc3)c3cc(Cl)ccc3c2=O)cc1 [Example I-50, N-(7-Chloro-4-oxo-1-phenyl-1,4-dihydro-quinolin-3-ylmethyl)-terephthal-amide] | 0.3 µM
7 | CC(C)(C)OC(=O)N[C@H]1CC[C@@H](NC(=O)NCc2cn(-c3ccccc3)c3cc(Cl)ccc3c2=O)CC1 [Example I-181, {4-[3-(7-Chloro-4-oxo-1-phenyl-1,4-dihydro-quinolin-3-ylmethyl)-ureido]-cyclohexyl}-carbamic acid tert-butyl ester] | 0.2 µM
8 | O=C(NCc1cn(-c2ccccc2)c2cc(Cl)ccc2c1=O)c1cc(F)cc(F)c1 [Example I-58, N-(7-Chloro-4-oxo-1-phenyl-1,4-dihydro-quinolin-3-ylmethyl)-3,5-difluoro-benzamide] | 0.63 µM
9 | O=c1c(CNc2ccnc(N3CCCCC3)n2)cn(-c2ccccc2)c2cc(Cl)ccc12 [Example I-174, 7-Chloro-1-phenyl-3-[(2-piperidin-1-yl-pyrimidin-4-ylamino)-methyl]-1H-quinolin-4-one trifluoroacetate salt] | 0.35 µM
10 | O=C(NCc1cn(-c2ccccc2)c2cc(Cl)ccc2c1=O)Oc1ccccc1 [Example I-179, (7-Chloro-4-oxo-1-phenyl-1,4-dihydro-quinolin-3-ylmethyl)-carbamic acid phenyl ester] | 2 µM

Reference: patent US8501732B2, “Aminomethyl quinolone compounds” (Hoffmann-La Roche Inc., priority 2011, dated 2013)
